The target of one test is T1, human DYRK1A (Homo sapiens, UniProt Q13627).
T1 construct: Recombinant full-length DYRK1A (expressed in E. Coli cells with an N-terminal GST tag); GST (N); purchased SignalChem D09-10G; host or cells: E. coli
Kind of test: DYRK1A enzyme assay (ADP-Glo). In kind it is biochemical. Particulars: ADP-Glo, ATP 60 μM; read-out: DYRK1A IC50. A digest of the protocol:
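GST-tagged full-length human DYRK1A (E. coli, 3 nM) preincubated 30 min at 25 °C with compound in 40 mM Tris pH 7.5, 20 mM MgCl2, 0.1 mg/ml BSA, 50 μM DTT, then reacted 60 min with 20 μM DYRKtide and 60 μM ATP. ADP-Glo luminescence; IC50 by four-parameter logistic fit.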
A general note: ADP-Glo first removes unused ATP, then detects ADP through luciferase.

A further test deals with T2, human GSK3 beta (Homo sapiens, UniProt P49841).
T2 construct: Recombinant full-length human GSK3 beta (expressed in Sf9 insect cells with an N-terminal His tag); His (N); purchased SignalChem G09-10H; host or cells: Sf9 insect cells
The test can be described thus: GSK3 beta enzyme assay (ADP-Glo). Conditions: ATP 25 μM, read-out: GSK3b IC50. In kind it is biochemical. The gist of the method: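 Full-length His-tagged human GSK3β from Sf9 cells (4 nM) preincubated 30 min at 25 °C with inhibitor in Tris pH 7.5/MgCl2/BSA/DTT, then reacted 60 min at 25 °C with 13 μM substrate peptide and 25 μM ATP. ADP measured by ADP-Glo luminescence; IC50 from four-parameter logistic fit of % inhibition.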

SMILES strings stand for the structures.

T2 sequence (P49841 whole entry): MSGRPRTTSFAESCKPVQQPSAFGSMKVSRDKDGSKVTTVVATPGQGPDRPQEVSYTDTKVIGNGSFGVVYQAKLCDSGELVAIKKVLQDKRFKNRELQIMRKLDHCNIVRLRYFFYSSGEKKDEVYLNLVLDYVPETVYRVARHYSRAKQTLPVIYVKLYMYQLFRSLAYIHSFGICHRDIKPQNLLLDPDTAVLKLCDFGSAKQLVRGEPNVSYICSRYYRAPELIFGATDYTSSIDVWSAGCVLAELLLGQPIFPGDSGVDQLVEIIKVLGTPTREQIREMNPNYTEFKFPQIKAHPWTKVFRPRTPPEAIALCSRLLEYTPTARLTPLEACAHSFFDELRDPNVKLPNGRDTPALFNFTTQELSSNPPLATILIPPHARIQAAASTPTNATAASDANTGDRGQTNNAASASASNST

`O=C1NC(Nc2ccc3ncsc3c2)=N/C1=C\c1ccc2cccnc2c1` [Example 60, (Z)-2-(benzo[d]thiazol-6-ylamino)-5-(quinolin-7-ylmethylene)-3,5-dihydro-4H-imidazol-4-one]: the IC50 on human DYRK1A and at human GSK3 beta was over 10 µM throughout.

On to `Cn1cnc2cc(NC3=N/C(=C\c4ccc5ncsc5c4)C(=O)N3)ccc21` [Example 61, (Z)-5-(benzo[d]thiazol-6-ylmethylene)-2-((1-methyl-1H-benzo[d]imidazol-5-yl)amino)-3,5-dihydro-4H-imidazol-4-one], for which the figures for the IC50 on human DYRK1A and on human GSK3 beta were under 0.1 µM and 0.1 to 1 µM, respectively.

As to `O=C1NC(Nc2ccc3ncsc3c2)=N/C1=C\c1ccc2cc[nH]c2c1` [Example 63, (Z)-5-((1H-indol-6-yl)methylene)-2-(benzo[d]thiazol-6-ylamino)-3,5-dihydro-4H-imidazol-4-one], the IC50 on human DYRK1A and on human GSK3 beta was over 10 µM throughout.

Take `O=C1NC(Nc2ccc3[nH]ccc3c2)=N/C1=C\c1ccc2ncsc2c1` [Example 69, (Z)-2-((1H-indol-5-yl)amino)-5-(benzo[d]thiazol-6-ylmethylene)-3,5-dihydro-4H-imidazol-4-one]: the IC50 (commonly the concentration that gives 50% inhibition) on human DYRK1A is under 0.1 µM; on human GSK3 beta it was 0.1 to 1 µM.

Take `CN(C1=N/C(=C\c2ccc3c(c2)OCO3)C(=O)N1)c1ccc2ncsc2c1` [Example 70, (Z)-5-(benzo[d][1,3]dioxol-5-ylmethylene)-2-(benzo[d]thiazol-6-yl(methyl)amino)-3,5-dihydro-4H-imidazol-4-one]: the IC50 on human DYRK1A and on human GSK3 beta was over 10 µM in each case.

For `Cn1cnc2cc(/C=C3\N=C(Nc4ccccc4)NC3=O)ccc21` [Example 71, (Z)-5-((1-methyl-1H-benzo[d]imidazol-5-yl)methylene)-2-(phenylamino)-3,5-dihydro-4H-imidazol-4-one], the half-inhibitory concentration (IC50) on human DYRK1A and at human GSK3 beta was over 10 µM in each case.

Consider `O=C1NC(Nc2ccccc2)=N/C1=C\c1ccc2sccc2c1` [Example 72, (Z)-5-(benzo[b]thiophen-5-ylmethylene)-2-(phenylamino)-3,5-dihydro-4H-imidazol-4-one], for which the 50% inhibitory concentration (IC50) on human DYRK1A and on human GSK3 beta was over 10 µM each time.

In the case of `O=C1NC(Nc2ccccc2)=N/C1=C\c1ccc2cc[nH]c2c1` [Example 73, (Z)-5-((1H-indol-6-yl)methylene)-2-(phenylamino)-3,5-dihydro-4H-imidazol-4-one], the IC50 on human DYRK1A and at human GSK3 beta was over 10 µM in each case.

For the compound `O=C1NC(Nc2ccc3ncsc3c2)=N/C1=C\c1ccc2c(c1)OCCO2` [Example 74, (Z)-2-(benzo[d]thiazol-6-ylamino)-5-((2,3-dihydrobenzo[b][1,4]dioxin-6-yl)methylene)-3,5-dihydro-4H-imidazol-4-one], the 50% inhibitory concentration (IC50) at human DYRK1A and on human GSK3 beta was over 10 µM each time.

As to `Cn1cnc2ccc(/C=C3\N=C(Nc4ccc5ncsc5c4)NC3=O)cc21` [Example 75, (Z)-2-(benzo[d]thiazol-6-ylamino)-5-((1-methyl-1H-benzo[d]imidazol-6-yl)methylene)-3,5-dihydro-4H-imidazol-4-one], the IC50 is under 0.1 µM on human DYRK1A and 0.1 to 1 µM on human GSK3 beta.

On to `O=C1NC(Nc2ccc3ncsc3c2)=N/C1=C\c1ccc2nc[nH]c2c1` [Example 76, (Z)-5-((1H-benzo[d]imidazol-6-yl)methylene)-2-(benzo[d]thiazol-6-ylamino)-3,5-dihydro-4H-imidazol-4-one], for which the half-inhibitory concentration (IC50) on human DYRK1A is under 0.1 µM; on human GSK3 beta, 0.1 to 1 µM.

Consider `Cn1ncc2cc(/C=C3\N=C(Nc4ccccc4)NC3=O)ccc21` [Example 77, (Z)-5-((1-methyl-1H-indazol-5-yl)methylene)-2-(phenylamino)-3,5-dihydro-4H-imidazol-4-one], for which the results for the 50% inhibitory concentration (IC50) at human DYRK1A and on human GSK3 beta were under 0.1 µM and over 10 µM, respectively.

Take `Cn1ncc2cc(/C=C3\N=C(Nc4ccc5ncsc5c4)NC3=O)ccc21` [Example 78, (Z)-2-(benzo[d]thiazol-6-ylamino)-5-((1-methyl-1H-indazol-5-yl)methylene)-3,5-dihydro-4H-imidazol-4-one]: the half-inhibitory concentration (IC50) at human DYRK1A and at human GSK3 beta was over 10 µM throughout.

For the compound `Cn1ncc2ccc(/C=C3\N=C(Nc4ccccc4)NC3=O)cc21` [Example 79, 5-((1-methyl-1H-indazol-6-yl)methylene)-2-(phenylamino)-3,5-dihydro-4H-imidazol-4-one], the IC50 at human DYRK1A and on human GSK3 beta was over 10 µM throughout.

Take `Cn1ncc2ccc(/C=C3\N=C(Nc4ccc5ncsc5c4)NC3=O)cc21` [Example 80, (Z)-2-(benzo[d]thiazol-6-ylamino)-5-((1-methyl-1H-indazol-6-yl)methylene)-3,5-dihydro-4H-imidazol-4-one]: the IC50 at human DYRK1A and at human GSK3 beta was over 10 µM in each case.

Regarding `O=C1NC(Nc2ccc3c(c2)OCCO3)=N/C1=C\c1ccc2ncsc2c1` [Example 81, (Z)-5-(benzo[d]thiazol-6-ylmethylene)-2-((2,3-dihydrobenzo[b][1,4]dioxin-6-yl)amino)-3,5-dihydro-4H-imidazol-4-one], the IC50 on human DYRK1A was under 0.1 µM; on human GSK3 beta it was 0.1 to 1 µM.

For the compound `CN(C1=N/C(=C\c2ccc3ncsc3c2)C(=O)N1)c1ccc2ncsc2c1` [Example 83, (Z)-2-(benzo[d]thiazol-6-yl(methyl)amino)-5-(benzo[d]thiazol-6-ylmethylene)-3,5-dihydro-4H-imidazol-4-one], the results for the concentration for half-maximal inhibition (IC50) at human DYRK1A and on human GSK3 beta were 0.1 to 1 µM and 1 to 10 µM, respectively.

As to `CN(C1=N/C(=C\c2ccc3c(c2)OCCO3)C(=O)N1)c1ccc2ncsc2c1` [Example 84, (Z)-2-(benzo[d]thiazol-6-yl(methyl)amino)-5-((2,3-dihydrobenzo[b][1,4]dioxin-6-yl)methylene)-3,5-dihydro-4H-imidazol-4-one], the values for the IC50 at human DYRK1A and on human GSK3 beta were 0.1 to 1 µM and 1 to 10 µM, respectively.

For `O=C1NC(Nc2ccc3ncsc3c2)=NC1Cc1ccc2ncsc2c1` (centres unmarked) [Example 102, 2-(benzo[d]thiazol-6-ylamino)-5-(benzo[d]thiazol-6-ylmethyl)-3,5-dihydro-4H-imidazol-4-one], the IC50 on human DYRK1A is 1 to 10 µM; on human GSK3 beta, over 10 µM.

In the case of `NC1=N/C(=C\c2ccc3ncsc3c2)C(=O)N1` [Example 103, (Z)-2-amino-5-(benzo[d]thiazol-6-ylmethylene)-3,5-dihydro-4H-imidazol-4-one], the IC50 is under 0.1 µM on human DYRK1A and 1 to 10 µM on human GSK3 beta.

On to `O=C1NC(Nc2ccc3nc(Nc4ccccc4)sc3c2)=N/C1=C\c1ccc2ncsc2c1` [Example 104, (Z)-5-(benzo[d]thiazol-6-ylmethylene)-2-((2-(phenylamino)benzo[d]thiazol-6-yl)amino)-3,5-dihydro-4H-imidazol-4-one], for which the IC50 is 1 to 10 µM on human DYRK1A and over 10 µM on human GSK3 beta.

As to `O=C1NC(N(CC2CC2)c2ccc3ncsc3c2)=N/C1=C\c1ccc2ncsc2c1` [Example 105, (Z)-2-(benzo[d]thiazol-6-yl(cyclopropylmethyl)amino)-5-(benzo[d]thiazol-6-ylmethylene)-3,5-dihydro-4H-imidazol-4-one], the 50% inhibitory concentration (IC50) on human DYRK1A and on human GSK3 beta was over 10 µM each time.

The values above are taken from US12643887B2, “Heterocyclic derivatives with cardiomyocyte proliferation activity for treatment of heart diseases” (Tongji University, priority 2019, dated 2026).
